This passage reports IC50 results from patent publication US12479856B2, “Pharmaceutical compounds for the treatment of complement mediated disorders” (Achillion Pharmaceuticals, Inc., priority 2019, dated 2025).

SMILES strings stand for the structures.

This experiment has as its target T1, Human complement C1s enzyme (Homo sapiens, UniProt P09871).
T1 construct: purified from human serum, Complement Technology, Inc; purchased Complement Technology, Inc; host or cells: human serum (plasma-derived natural protein)
T1 sequence (P09871 438-688 limits assumed): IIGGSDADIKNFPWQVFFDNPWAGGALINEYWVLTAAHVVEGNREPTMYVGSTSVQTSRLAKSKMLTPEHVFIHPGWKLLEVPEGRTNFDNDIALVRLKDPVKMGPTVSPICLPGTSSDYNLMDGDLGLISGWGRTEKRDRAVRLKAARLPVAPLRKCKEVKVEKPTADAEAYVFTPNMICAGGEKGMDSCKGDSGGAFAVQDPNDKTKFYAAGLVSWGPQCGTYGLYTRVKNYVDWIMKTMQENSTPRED
T1 sequence (P09871 16-437 partner limits assumed): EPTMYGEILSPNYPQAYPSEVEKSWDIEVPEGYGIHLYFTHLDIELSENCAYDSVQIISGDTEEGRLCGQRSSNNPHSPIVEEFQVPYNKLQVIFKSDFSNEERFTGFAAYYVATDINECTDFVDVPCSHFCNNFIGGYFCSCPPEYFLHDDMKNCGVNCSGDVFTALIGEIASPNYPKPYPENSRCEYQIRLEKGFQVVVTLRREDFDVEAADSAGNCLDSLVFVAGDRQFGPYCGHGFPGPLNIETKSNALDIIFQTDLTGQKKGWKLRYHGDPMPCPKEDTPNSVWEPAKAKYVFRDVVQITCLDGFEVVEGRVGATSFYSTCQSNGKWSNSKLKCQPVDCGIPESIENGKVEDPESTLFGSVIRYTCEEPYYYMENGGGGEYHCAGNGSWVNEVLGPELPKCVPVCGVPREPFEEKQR
Put plainly: Human C1s Enzyme Assay. The experiment is classed as biochemical. As to conditions: Table 2; C1s purified from human serum, 1.16 nM; substrate Z-L-Lys-SBzl; read-out: C1s Protease Activity. On the procedure:
Example 4. Human C1s Enzyme Assay
Human complement C1s enzyme (purified from human serum, Complement Technology, Inc.) at 1.16 nM final concentration is incubated with test compound at various concentrations for 5 min at room temperature in 50 mM Tris, 1 M NaCl, pH 7.5. A synthetic substrate Z-L-Lys-SBzl and DTNB (Ellman's reagent) are added to final concentrations of 100 μM each. Absorbance at 405 nm (A405) is recorded at 30 second intervals for 30 min using a microplate spectrophotometer. IC50 values are calculated by nonlinear regression of complement C1s reaction rates as a function of test compound concentration.
For the compound `Cc1cc(C(=O)NCC(=O)N2CC3(C[C@H]2C(=O)NCc2cc(C(=N)N)cs2)OCCO3)ccc1Oc1ccccc1` [Compound 47, (S)-N-((4-carbamimidoylthiophen-2-yl)methyl)-7-((3-methyl-4-phenoxybenzoyl)glycyl)-1,4-dioxa-7-azaspiro[4.4]nonane-8-carboxamide], the IC50 was < 100 nM. Take `Cc1cc(C(=O)NCC(=O)N2[C@H]3C[C@@]3(C)C[C@H]2C(=O)NCc2cc(C(=N)N)cs2)ccc1Oc1ccccc1` [Compound 48, (1S,3S,5S)-N-((4-carbamimidoylthiophen-2-yl)methyl)-5-methyl-2-((3-methyl-4-phenoxybenzoyl)glycyl)-2-azabicyclo[3.1.0]hexane-3-carboxamide]: the IC50 is < 100 nM. As for `Cc1cc(C(=O)NCC(=O)N2CC3(C[C@H]2C(=O)NCc2nc(C(=N)N)cs2)OCCO3)ccc1Oc1ccccc1` [Compound 49, (S)-N-((4-carbamimidoylthiazol-2-yl)methyl)-7-((3-methyl-4-phenoxybenzoyl)glycyl)-1,4-dioxa-7-azaspiro[4.4]nonane-8-carboxamide], the IC50 is < 100 nM. Next, `Cc1cc(C(=O)NCC(=O)N2CC3(C[C@H]2C(=O)NCc2nc(C(=N)N)co2)OCCO3)ccc1Oc1ccccc1` [Compound 51, (S)-N-((4-carbamimidoyloxazol-2-yl)methyl)-7-((3-methyl-4-phenoxybenzoyl)glycyl)-1,4-dioxa-7-azaspiro[4.4]nonane-8-carboxamide]: < 100 nM; `N=C(N)c1csc(CNC(=O)[C@@H]2CCCN2C(=O)CCC(=O)c2ccc(Oc3ccccc3)cc2)c1` [Compound 52, (S)-N-((4-carbamimidoylthiophen-2-yl)methyl)-1-(4-oxo-4-(4-phenoxyphenyl)butanoyl)pyrrolidine-2-carboxamide]: < 100 nM; `N=C(N)c1csc(CNC(=O)[C@@H]2CCCN2C(=O)CCCc2ccc(Oc3ccccc3)cc2)c1` [Compound 53, (S)-N-((4-carbamimidoylthiophen-2-yl)methyl)-1-(4-(4-phenoxyphenyl)butanoyl)pyrrolidine-2-carboxamide]: < 100 nM. Next, `N=C(N)c1csc(CNC(=O)[C@@H]2CCCN2CCCC(=O)c2ccc(Oc3ccccc3)cc2)c1` [Compound 54, (S)-N-((4-carbamimidoylthiophen-2-yl)methyl)-1-(4-oxo-4-(4-phenoxyphenyl)butyl)pyrrolidine-2-carboxamide]: > 1000 nM; `NCc1csc(CNC(=O)[C@@H]2CCCN2C(=O)CNC(=O)c2ccc(Oc3ccccc3)cc2)c1` [Compound 55, (S)-N-((4-(aminomethyl)thiophen-2-yl)methyl)-1-((4-phenoxybenzoyl)glycyl)pyrrolidine-2-carboxamide]: > 1000 nM; `N=C(N)c1csc(CNC(=O)[C@@H]2CCCN2C(=O)CNC(=O)c2ccc(Cc3ccccc3)cc2)c1` [Compound 56, (S)-1-((4-benzylbenzoyl)glycyl)-N-((4-carbamimidoylthiophen-2-yl)methyl)pyrrolidine-2-carboxamide]: < 100 nM.

With `CC(C)(c1ccccc1)c1ccc(C(=O)NCC(=O)N2CCC[C@H]2C(=O)NCc2cc(C(=N)N)cs2)cc1` [Compound 57, (S)-N-((4-carbamimidoylthiophen-2-yl)methyl)-1-((4-(2-phenylpropan-2-yl)benzoyl)glycyl)pyrrolidine-2-carboxamide], the IC50 is < 100 nM. Take `CC(c1ccccc1)c1ccc(C(=O)NCC(=O)N2CCC[C@H]2C(=O)NCc2cc(C(=N)N)cs2)cc1` (stereo partly drawn) [Compound 58, (2S)-N-((4-carbamimidoylthiophen-2-yl)methyl)-1-((4-(1-phenylethyl)benzoyl)glycyl)pyrrolidine-2-carboxamide]: the IC50 was < 100 nM. For `N=C(N)c1csc(CNC(=O)[C@@H]2CCCN2C(=O)NNC(=O)c2ccc(Oc3ccccc3)cc2)c1` [Compound 59, (S)-N-((4-carbamimidoylthiophen-2-yl)methyl)-1-(2-(4-phenoxybenzoyl)hydrazine-1-carbonyl)pyrrolidine-2-carboxamide], the IC50 lay within 100 to 1000 nM.

For the compound `CC(N)c1csc(CNC(=O)[C@@H]2CCCN2C(=O)CNC(=O)c2ccc(Oc3ccccc3)cc2)c1` (stereo partly drawn) [Compound 60, (2S)-N-((4-(1-aminoethyl)thiophen-2-yl)methyl)-1-((4-phenoxybenzoyl)glycyl)pyrrolidine-2-carboxamide], the IC50 was > 1000 nM.

Take `CO[C@@H]1C[C@H](C(=O)NCc2cc(C(=N)N)cs2)[C@H](C(=O)CNC(=O)c2ccc(Oc3ccccc3)cc2)C1` [Compound 61, N-(2-((1R,2S,4S)-2-(((4-carbamimidoylthiophen-2-yl)methyl)carbamoyl)-4-methoxycyclopentyl)-2-oxoethyl)-4-phenoxybenzamide]: the IC50 was > 1000 nM.

With `CO[C@@H]1C[C@H](C(=O)CNC(=O)c2ccc(Oc3ccccc3)cc2)[C@@H](C(=O)NCc2cc(C(=N)N)cs2)C1` [Compound 62, N-(2-((1S,2S,4R)-2-(((4-carbamimidoylthiophen-2-yl)methyl)carbamoyl)-4-methoxycyclopentyl)-2-oxoethyl)-4-phenoxybenzamide], the IC50 is > 1000 nM. For `N#C/N=C(\N)c1csc(CNC(=O)[C@@H]2CC3(CN2C(=O)CNC(=O)c2ccc(Oc4ccccc4)cc2)OCCO3)c1` [Compound 63, (S,Z)-N-((4-(N′-cyanocarbamimidoyl)thiophen-2-yl)methyl)-7-((4-phenoxybenzoyl)glycyl)-1,4-dioxa-7-azaspiro[4.4]nonane-8-carboxamide], the IC50 is < 100 nM. As to `Cc1cc(C(=O)NCC(=O)N2CC3(C[C@H]2C(=O)NCc2cc4c(N)nccc4s2)OCCO3)ccc1Oc1ccccc1` [Compound 64, (S)-N-((4-aminothieno[3,2-c]pyridin-2-yl)methyl)-7-((3-methyl-4-phenoxybenzoyl)glycyl)-1,4-dioxa-7-azaspiro[4.4]nonane-8-carboxamide], the IC50 fell in the range of 100 to 1000 nM. For `N=C(N)NOCCNC(=O)[C@@H]1CC2(CN1C(=O)CNC(=O)c1ccc(Oc3ccccc3)cc1)OCCO2` [Compound 65, (S)-N-(2-(guanidinooxy)ethyl)-7-((4-phenoxybenzoyl)glycyl)-1,4-dioxa-7-azaspiro[4.4]nonane-8-carboxamide], the IC50 was > 1000 nM.

In the case of `N/C(=N\O)c1csc(CNC(=O)[C@@H]2CC3(CN2C(=O)CNC(=O)c2ccc(Oc4ccccc4)cc2)OCCO3)c1` [Compound 66, (S,Z)-N-((4-(N′-hydroxycarbamimidoyl)thiophen-2-yl)methyl)-7-((4-phenoxybenzoyl)glycyl)-1,4-dioxa-7-azaspiro[4.4]nonane-8-carboxamide], the IC50 was < 100 nM. Turning to `N=C(N)c1csc(CNC(=O)[C@@H]2CCCN2C(=O)CNC(=O)CCCOc2ccccc2)c1` [Compound 67, (S)-N-((4-carbamimidoylthiophen-2-yl)methyl)-1-((4-phenoxybutanoyl)glycyl)pyrrolidine-2-carboxamide], the IC50 is < 100 nM.

For `N=C(N)c1csc(CNC(=O)[C@@H]2CCCN2C(=O)CNC(=O)CCCCOc2ccccc2)c1` [Compound 68, (S)-N-((4-carbamimidoylthiophen-2-yl)methyl)-1-((5-phenoxypentanoyl)glycyl)pyrrolidine-2-carboxamide], the IC50 is < 100 nM. To `CN(C)CCCC(=O)NCC(=O)N1CCC[C@H]1C(=O)NCc1cc(C(=N)N)cs1` [Compound 69, (S)-N-((4-carbamimidoylthiophen-2-yl)methyl)-1-((4-(dimethylamino)butanoyl)glycyl)pyrrolidine-2-carboxamide] belongs > 1000 nM; to `CN(C)CCCCC(=O)NCC(=O)N1CCC[C@H]1C(=O)NCc1cc(C(=N)N)cs1` [Compound 70, (S)-N-((4-carbamimidoylthiophen-2-yl)methyl)-1-((5-(dimethylamino)pentanoyl)glycyl)pyrrolidine-2-carboxamide], > 1000 nM. As to `CN(C)CCCCCC(=O)NCC(=O)N1CCC[C@H]1C(=O)NCc1cc(C(=N)N)cs1` [Compound 71, (S)-N-((4-carbamimidoylthiophen-2-yl)methyl)-1-((6-(dimethylamino)hexanoyl)glycyl)pyrrolidine-2-carboxamide], the IC50 is > 1000 nM. As to `CCCc1ccc(C(=O)NCC(=O)N2CCC[C@H]2C(=O)NCc2cc(C(=N)N)cs2)cc1` [Compound 72, (S)-N-((4-carbamimidoylthiophen-2-yl)methyl)-1-((4-propylbenzoyl)glycyl)pyrrolidine-2-carboxamide], the IC50 was < 100 nM. To `CCCCc1ccc(C(=O)NCC(=O)N2CCC[C@H]2C(=O)NCc2cc(C(=N)N)cs2)cc1` [Compound 73, (S)-1-((4-butylbenzoyl)glycyl)-N-((4-carbamimidoylthiophen-2-yl)methyl)pyrrolidine-2-carboxamide] belongs < 100 nM.
